This assay concerns the target T1, human β-Secretase (Homo sapiens, UniProt P56817).
T1 construct: The soluble part of the human β-Secretase (AA 1-AA 460) was cloned; Fc domain of IgG1 (C); made in house
Briefly: TR-FRET Assay. To be noted: sBACE-Fc enzyme 0.3 nM; substrate (Europium)CEVNLDAEFK(Qsy7) 100 nM; pH 4.5. It is filed as biochemical. As for the experimental part: The enzyme used in the IGEN Cleavage-, Fluorescent-, TR-FRET- and the BiaCore assay is described as follows:
The soluble part of the human β-Secretase (AA 1-AA 460) was cloned into the ASP2-Fc10-1-IRES-GFP-neoK mammalian expression vector. The gene was fused to the Fc domain of IgG1 (affinity tag) and stably cloned into HEK 293 cells. Purified sBACE-Fc is stored in Tris buffer, pH 9.2 and has a purity of 95%.
Dilute the enzyme (truncated form) to 6 μg/mL (stock 1.3 mg/mL) and the substrate (Europium)CEVNLDAEFK(Qsy7) to 200 nM (stock 60 μM) in reaction buffer (NaAcetate, chaps, triton x-100, EDTA pH4.5). The Biomek FX is used for all liquid handling and the enzyme and substrate solutions are kept on ice until they are placed in Biomek FX. Enzyme (9 μl) is added to the plate then 1 μl of compound in dimethylsulphoxide is added, mixed and pre-incubated for 10 minutes. Substrate (10 μl) is then added, mixed and the reaction proceeds in the dark for 15 minutes at room temperature. The reaction is stopped with the addition of Stop solution (7 μl, NaAcetate pH 9). The fluorescence of the product is measured on a Victor II plate reader with an excitation wavelength of 340 nm and an emission wavelength of 615 nm. The assay is done in a Costar 384 well round bottom, low volume, non-binding surface (Corning #3676). […]

Structures can show the parent of a compound that is named as a salt.

T1 sequence (P56817 22-460): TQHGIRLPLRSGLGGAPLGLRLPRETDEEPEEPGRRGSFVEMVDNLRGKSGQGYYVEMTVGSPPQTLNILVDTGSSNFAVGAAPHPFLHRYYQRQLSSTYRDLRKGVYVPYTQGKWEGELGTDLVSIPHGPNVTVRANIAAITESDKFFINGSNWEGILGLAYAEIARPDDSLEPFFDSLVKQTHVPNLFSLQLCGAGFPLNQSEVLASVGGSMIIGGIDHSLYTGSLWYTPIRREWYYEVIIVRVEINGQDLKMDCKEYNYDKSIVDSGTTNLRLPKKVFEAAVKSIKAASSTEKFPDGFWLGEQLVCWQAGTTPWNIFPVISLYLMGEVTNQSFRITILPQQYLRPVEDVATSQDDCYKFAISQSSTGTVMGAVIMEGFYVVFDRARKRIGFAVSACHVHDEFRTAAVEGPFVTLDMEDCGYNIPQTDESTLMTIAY

`COc1cncc(-c2cccc(C3(C)CC(=O)N(C)C(N)=N3)c2)c1` (centres unmarked) [Example 21, 2-Amino-6-[3-(5-methoxypyridin-3-yl)phenyl]-3,6-dimethyl-5,6-dihydropyrimidin-4(3H)-one hydrochloride]: half-maximal inhibition (IC50) required 316 nM. The value for `CN1C(=O)CC(C)(CCc2cccc(-c3ccnc(Cl)c3)c2)N=C1N` (centres unmarked) [Example 20, 2-Amino-6-{2-[3-(2-chloropyridin-4-yl)phenyl]ethyl}-3,6-dimethyl-5,6-dihydropyrimidin-4(3H)-one hydrochloride] was 114 nM.
